According to PMC10176470, “Engaging a Non-catalytic Cysteine Residue Drives Potent and Selective Inhibition of Caspase-6” (Journal of the American Chemical Society, 2023):

Target: proteins of HEK293T cells transiently overexpressing caspase-6 (Homo sapiens, UniProt P42704)
Assay type: cell-based
Details: exp_ref Probe; protein LRPPRC (P42704); analysis C6

C#CCOc1ccc([C@@H]2C[C@@H](C(=O)Nc3ccc(OC(F)(F)F)cc3)CN(S(=O)(=O)C=C)C2)cc1 (relative stereo) [13-t]
enrich.exp.med: 0.2022
